Reference: a melting point compilation (Tetko et al.; mined from patent text by program, amines drawn as free bases though some values may be those of a salt)

SMILES	melting point [°C]
CCCCCCCCCCCCCCCC[C@]1(CO)CC(=O)N1	82
O=[N+]([O-])C1([N+](=O)[O-])COC1	70 to 71
COc1ccc2c(c1)c(CC(=O)O)c(C)n2C(=O)c1ccc([N+](=O)[O-])o1	178 to 180
O=C1Cc2cc3c(cc2CCN1)OCO3	236 to 237
O=C(Nc1nc2c(Oc3cc(-c4ccc(C(F)(F)F)cc4)ncn3)cccc2s1)C(O)c1ccccc1 (stereo not given)	198 to 205
CCOC(=O)NCCOc1ccc(Oc2cccc(Cl)c2)cc1	45 to 46
COC(=O)C1=C(O)C(=O)O[C@@H]1C	94 to 96
Sc1c(Cl)cc(Cl)c(Cl)c1S	115 to 116
CN(C)C(=O)[C@@H]1C[C@H](C(=O)OC(C)(C)C)N[C@@H]1c1ccccc1 (racemic)	97
CCC1CC2=C3C(=CN(OC)C2OC)OCCC3C1 (stereo not given)	207 to 210
O=C1C(Br)CCN1c1ccc(OCc2ccccc2)cc1 (racemic)	125 to 126
O=[N+]([O-])C=Cc1ccc(OCc2ccccc2)c(OCc2ccccc2)c1	118 to 119
Cc1nc(CC2OC(CO)C(O)C2O)n2nc(Cl)ccc12 (stereo not given)	171 to 174
CO/N=C(/C(N)=O)c1ccccc1COc1cc(C)ccc1C	122
O=[N+]([O-])c1cc(Cl)cc(O)c1O	108 to 111
O=C(NC12CC3CC(CC(C3)C1)C2)c1ncon1	141 to 142
CCOC1OC(COC(C)=O)C(OC2OC(COC(C)=O)C(OC(C)=O)C(OC(C)=O)C2OC(C)=O)C(OC(C)=O)C1OC(C)=O (stereo not given)	133 to 135
COc1ccnc2c1C(=O)c1c(-c3ccccc3NC(=O)C(F)(F)F)ccnc1C2=O	158
CC(C)(C)OC(=O)C1CSC(C2CC3CCC2C3)N1C(=O)CNC(=O)Nc1cccc(CC(=O)O)c1 (mixture of isomers)	115
CC(=O)NNC(COCc1cc(C)cc(C)c1)C1c2ccccc2CCc2ccccc21 (stereo not given)	109 to 111
CC(C)n1nc(-c2cc(C(N)=O)c(N)nc2-c2ccccc2)ccc1=O	> 250
Cc1cc(C#N)c(=O)[nH]c1-c1ccccc1	250 to 257
O=C(NC(=O)c1ccccc1Cl)C(=C1NCCCS1)[N+](=O)[O-]	130 to 131
CCCCCC(CC(=O)Nc1cc(C(N)=O)ccc1C(C)(C)C)c1cc(Br)c(OC)cc1OC (stereo not given)	102 to 104
CCCCNc1nc(N(CCCC)C2CC(C)(C)N(OC3CCCCC3)C(C)(C)C2)nc(N(CCCC)C2CC(C)(C)N(OC3CCCCC3)C(C)(C)C2)n1	80 to 86

SMILES	melting point [°C]
O=S(=O)(c1ccc(Cl)s1)N(CCO)CCO	69
OC1CSC(Oc2ccc(-c3cccnc3)nc2Cl)C(O)C1O (stereo not given)	180
Cc1cc(-n2ccnc2)c2cccc(OCc3c(Cl)ccc(S(=O)(=O)N4CCC[C@H]4C(=O)NCC4CCN(Cc5ccncc5)CC4)c3Cl)c2n1	113
CCCc1nc2c(N)nc3ccccc3c2n1CCC(=O)N1CCOCC1	172 to 173
Cc1nc(C(O)(Cn2cncn2)c2ccc(Cl)cc2)sc1C (stereo not given)	174
CCOC(=O)OC1=C(c2cc(C)ccc2C)C(=O)NC1CC1CCS(=NC#N)CC1 (stereo not given)	103 to 105
CCOC(=O)Nc1coc2cc(OCc3ccccc3)ccc12	140
Oc1cnc(C2CCCCC2)nc1	163
CN(C)c1cc2c(cc1Cl)NC(=O)CC(c1cccc(-c3csc(Nc4ccncc4)n3)c1)=N2	231 to 234
CC(=O)Nc1ccc(-c2cc(C(=O)c3ccc(C)cc3)sc2N2CCOCC2)cc1	168
C=CC(=O)OCCCNC(=O)CCc1cc(-n2nc3ccccc3n2)c(O)c(C(C)(C)C)c1	87 to 89
CN1CCN(C(=O)c2c(Br)c(Br)c([N+](=O)[O-])c3c2OCCO3)CC1	164
O=C(O)CCN1Cn2cc(C(=O)O)cc2-c2ccccc21	234 to 236
CC(C)(O)Cn1c(CO)nc2c(N)nc3cc(-c4cccc(C(=O)N5CCCC5)c4)cnc3c21	157 to 160
COc1ccc2c(c1)OCC(c1ccc(C(F)(F)F)cc1)C2c1ccc(O)cc1 (stereo not given)	211 to 213
O=C1Nc2ccccc2Nc2ccsc21	226
Cc1ccc(S(=O)c2cccc(-c3nc(=O)c4ccccc4s3)n2)cc1 (stereo not given)	228
COc1cc2c(Cl)c(C#N)cnc2cc1N1CCN(C)CC1	177 to 179
Cc1c2ccccc2cc2[nH]c(S)nc12	> 300
CN1C(=O)C(C(=O)NCCCCCC(=O)O)S(=O)(=O)c2ccccc21 (stereo not given)	132 to 134
Cc1cnc2c(C(N)=O)cnn2c1-c1cccc(C(F)(F)F)c1	237 to 239
O=C(c1ccc(Cl)cc1)c1ccc(CS(=O)(=O)C(F)F)cc1	154 to 157
CCN(CC)C(=O)c1nc(C)c(-c2ccncc2)s1	87.5 to 89
CCCCS(=O)(=O)Nc1ccccc1OCc1ccc2ccccc2n1	93 to 94
OC(Cc1ccc(Cl)cc1)(Cn1cncn1)Cn1cncn1	116 to 118
